Molecules are shown by their SMILES.

The Ki is a dissociation constant, usually derived from enzyme kinetics or from competition with a known ligand. High values mean weaker binding, low ones tighter binding.

This test in a line: Displacement of [125I]TZDM from beta amyloid 42 fibril. Background: In a radioligand displacement assay an active substance lowers the binding of a labelled ligand.
Regarding `COc1cc(N2C(=O)c3ccc(Br)cc3C2=O)ccc1N(C)C`, the inhibition constant Ki was 0.42 nM.

Compound `CN(C)c1ccc(N2Cc3ccc(F)cc3C2=O)cc1` had an inhibition constant (Ki) of 0.93 nM.

For `COc1cc(N2C(=O)c3ccccc3C2=O)ccc1N(C)C`, the inhibition constant (Ki) was 0.66 nM.

Compound `Cc1ccc2c(c1)C(=O)N(c1ccc(N(C)C)cc1)C2` had a Ki of 0.76 nM.

With `CN(C)c1ccc(N2Cc3cc(Cl)ccc3C2=O)cc1`, the affinity, expressed as Ki, was 0.76 nM.

Regarding `COc1cc(N2Cc3ccccc3C2=O)ccc1N(C)C`, the Ki was 0.9 nM.

In the case of `CN(C)c1ccc(N2Cc3ccc(Cl)cc3C2=O)cc1`, the affinity corresponds to a Ki of 0.5 nM.

`COc1ccc(N2C(=O)c3ccccc3C2=O)cc1N(C)C` yielded a Ki of 0.44 nM.

In turn, `CN(C)c1ccc(N2C(=O)c3ccccc3C2=O)cc1` registered a Ki of 0.69 nM.

For `COc1ccc(N2Cc3ccccc3C2=O)cc1N(C)C`, the affinity, expressed as Ki, was 0.65 nM.

Take `CC(C(=O)O)c1ccc(N2Cc3ccccc3C2=O)cc1` (stereo not given) [INDOPROFEN]: the affinity corresponds to a Ki of 0.52 nM.

Take `CN(C)c1ccc(N2Cc3cc(Br)ccc3C2=O)cc1`: the Ki stood at 0.81 nM.

`CNc1ccc(-c2nc3ccc(O)cc3s2)cc1` [PITTSBURGH COMPOUND B UNLABELLED] came in with a Ki of 0.7 nM.

Consider `COc1cc(N2C(=O)c3ccc(Cl)cc3C2=O)ccc1N(C)C`, for which the inhibition constant (Ki) worked out at 0.7 nM.

In turn, `COc1cc(N2Cc3ccc(C)cc3C2=O)ccc1N(C)C` registered a Ki of 0.46 nM.

`COc1ccc2c(c1)CN(c1ccc(N(C)C)cc1)C2=O` showed an inhibition constant Ki of 0.94 nM.

The compound `CN(C)c1cccc(N2C(=O)c3ccccc3C2=O)c1` displayed an inhibitory constant (Ki) of 0.46 nM.

`CN(C)c1ccc(N2C(=O)c3ccc(F)cc3C2=O)cc1`: the Ki came to 0.56 nM.

For `COc1ccc2c(c1)C(=O)N(c1ccc(N(C)C)cc1)C2=O`, the Ki was found to be 0.71 nM.

The compound `Cc1ccc2c(c1)C(=O)N(c1ccc(N(C)C)cc1)C2=O` had an inhibition constant (Ki) of 0.5 nM.

Consider `CN(C)c1ccc(N2Cc3ccccc3C2=O)cc1`, for which the affinity, expressed as Ki, was 0.58 nM.

The compound `COc1cc(N2C(=O)c3ccc(F)cc3C2=O)ccc1N(C)C` showed a Ki of 0.78 nM.

As for `CN(C)c1ccc(N2Cc3cc(F)ccc3C2=O)cc1`, the Ki came to 0.49 nM.

Turning to `CN(C)c1ccc(N2C(=O)c3ccc(N(C)C)cc3C2=O)cc1`, the Ki came out at 0.7 nM.

The compound `CN(C)c1cccc(N2Cc3ccccc3C2=O)c1` showed a Ki of 0.57 nM.

The values above are taken from ChEMBL document CHEMBL1141495, “Isoindol-1,3-dione and isoindol-1-one derivatives with high binding affinity to beta-amyloid fibrils” (Bioorg Med Chem Lett, 2008).
